Assays:
[1] = system: F/L-HERc cells expressing human EGF-R; assay: Inhibition of EGF-dependent proliferation of F/L-HERc cells; assay type: cell-based, murine cell line; human EGF-R; settings: EGF 20 ng/ml, 37° C., 48 hours
Excerpt: (§1) In this case, an interleukin-3 (IL-3)-dependent cell line of murine origin was used and was genetically modified in such a way that it expresses functional human EGF-R. Proliferation of these cells, which are called F/L-HERc, can therefore be stimulated either by murine IL-3 or by EGF (see von Ruden, T. et al. in EMBO J. 7, 2749-2756 (1988) and Pierce, J. H. et al. in Science 239, […] (1988)).
(§2) The starting material for the F/L-HERc cells was the cell line FDC-P1 whose preparation has been described by Dexter, T. M. et al. in J. Exp. Med. 152, 1036-1047 (1980). However, it is also possible as an alternative to use other growth factor-dependent cells (see, for example, Pierce, J. H. et al. in Science 239, 628-631 (1988), Shibuya, H. et al. in Cell 70, 57-67 (1992) and Alexander, W. S. et al. in EMBO J. 10, 3683-3691 (1991)). Recombinant retroviruses as described in von Ruden, T. et al., EMBO J. 7, 2749-2756 (1988) Were used for expression of the human EGF-R cDNA (see Ullrich, A. et al. in Nature 309, 418-425 (1984)), with the difference that the retroviral vector LXSN (see Miller, A. D. et al. in BioTechniques 7, 980-990 (1989)) was employed for expression of the EGF-R cDNA, and the line GP+E86 (see Markowitz, D. et al. in J. Virol. 62, 1120-1124 (1988)) was used as packaging cell.
(§3) F/L-HERc cells were cultivated in RPMI/1640 medium (BioWhittaker), supplemented with 10% fetal calf serum (FCS, Boehringer Mannheim), 2 mM glutamine (BioWhittaker), standard antibiotics and 20 ng/ml human EGF (Promega), at 37° C. and 5% CO2. To investigate the inhibitor activity of the compounds according to the invention, 1.5×10^4 cells were cultivated in the above medium (200 μl) per well in triplicates in 96-well plates, stimulating proliferation of the cells either with EGF (20 ng/ml) or with murine IL-3. The source used for IL-3 was culture supernatants from the cell line X63/0 mIL-3 (see Karasuyama, H. et al. in Eur. J. Immunol. 18, 97-104 (1988)). The compounds according to the invention were dissolved in 100% dimethyl sulphoxide (DMSO) and added in various dilutions to the cultures, with the maximum DMSO concentration being 1%. The cultures were incubated at 37° C. for 48 hours.
(§4) To determine the inhibitory activity of the compounds according to the invention, the relative cell count was measured in O.D. units using the Cell Titre 96™ AQueous Non-Radioactive Cell Proliferation Assay (Promega). The relative cell count was calculated as a percent of the control (F/L-HERc cells without inhibitor), and the concentration of active substance which inhibits the proliferation of the cells by 50% (IC50) was inferred.

[2] = system: human tumour cell line KB; assay: Inhibition of EGF/TGF-alpha-stimulated KB cell proliferation ([3H]-thymidine incorporation); assay type: cell-based; settings: TGF-alpha 10 ng/ml or EGF 20 ng/ml, serum-free, 60 hours then [3H]-thymidine 16-18 h
Experimental: KB cells (purchased from ATCC) were passaged in DMEM (BioWhittaker) in the presence of 10% FCS (Boehringer Mannheim), 50 μM beta-mercaptoethanol and standard antibiotics. The EGF-induced DNA synthesis was determined by measuring the incorporation of radioactively labelled thymidine as indicator of EGF/TGF-alpha-stimulated cell proliferation. To do this, the cells were washed twice and 1500 cells per well were plated out in a 96-well plate in 200 μl of IMDM (BioWhittaker) without serum in the presence of 50 μM beta-mercaptoethanol, standard antibiotics, TGF-alpha [10 ng/ml] or EGF [20 ng/ml] and of various concentrations of the substances according to the invention (triplicates, maximum DMSO concentration 1%, see proliferation t t with F/L-HERc cells). After 60 hours, [^3 H]-thymidine (0.1 μCi in 10 μl) was added for about 16-18 h.

[3] = system: F/L-HERc cells; assay: Inhibition of IL-3-dependent proliferation of F/L-HERc cells; assay type: cell-based; settings: Mus musculus, murine IL-3, 37° C., 48 hours
Excerpt: as §1, §2, §3, §4

SMILES	IC50 [2] [nM]	IC50 [1] [nM]	IC50 [3] [nM]
Nc1c(Cl)cc(Nc2ncnc3cnc(N[C@H]4CC[C@H](C(=O)N5CCOCC5)CC4)nc23)cc1Cl [1(17), 4-[(4-Amino-3,5-dichlorophenyl)amino]-6-[trans-4-(morpholinocarbonyl)cyclohexylamino]pyrimido[5,4-d]pyrimidine]	100 to 1000	1	> 1000
Nc1c(Cl)cc(Nc2ncnc3cnc(N[C@H]4CC[C@H](C(=O)N5CCCC5)CC4)nc23)cc1Cl [1(18), 4-[(4-Amino-3,5-dichlorophenyl)amino]-6-[trans-4-(pyrrolidinocarbonyl)cyclohexylamino]pyrimido[5,4-d]pyrimidine]	100 to 1000	3	> 1000
Fc1ccc(Nc2ncnc3cnc(N4CCC(C5CCNCC5)CC4)nc23)cc1Cl [1(19), 4-[(3-Chloro-4-fluorophenyl)amino]-6-[4-(4-piperidinyl)-1-piperidinyl]pyrimido[5,4-d]pyrimidine]	100 to 1000	83	> 1000
CC(CN1CCCCC1)Nc1ncc2ncnc(Nc3ccc(F)c(Cl)c3)c2n1 (stereo not drawn) [1(20), 4-[(3-Chloro-4-fluorophenyl)amino]-6-[1-(1-piperidinyl)-2-propylamino]pyrimido[5,4-d]pyrimidine]	100 to 1000	225	> 1000

Now from value to compound, other results behind:

IC50 [2] [nM]	SMILES	IC50 [1] [nM]	IC50 [3] [nM]
100 to 1000	CCN(CC)CC(C)Nc1ncc2ncnc(Nc3ccc(F)c(Cl)c3)c2n1 (stereo not drawn) [1(21), 4-[(3-Chloro-4-fluorophenyl)amino]-6-[1-(N,N-diethylamino)-2-propylamino]pyrimido[5,4-d]pyrimidine]	300	> 1000
100 to 1000	NCC1CCC(CNc2ncc3ncnc(Nc4ccc(F)c(Cl)c4)c3n2)CC1 (stereo not drawn) [1(22), 4-[(3-Chloro-4-fluorophenyl)amino]-6-[4-(aminomethyl)cyclohexylmethylamino]pyrimido[5,4-d]pyrimidine]	43	> 1000
